Data from US20050202973A1, “Aryl-alkyne compounds as herbicides” (priority 2002, published 2005).

Assays:
Assay type in all cases: in vivo
Stellaria (Stell) [1] = experiment: Post-emergence herbicidal action (Example B2); parameters: key: 1=total damage; 9=no action; Ratings of from 1 to 4 (especially from 1 to 3) indicate good to very good herbicidal action; conditions: 1000 g of active compound per ha; post-emergence spray at 2- to 3-leaf stage; evaluated after 2 to 3 weeks; scale 1=total damage, 9=no action
Protocol: (§1) Monocotyledonous and dicotyledonous test plants are sown in standard soil in pots. When the test plants are at the 2- to 3-leaf stage, the test compounds, in the form of an aqueous suspension (prepared from a wettable powder (Example F3, b) according to WO 97/34485) or in the form of an emulsion (prepared from an emulsifiable concentrate (Example F1, c) according to WO 97/34485), are applied by spraying, in an optimum concentration (500 litres of water per ha). The test plants are then grown on in a greenhouse under optimum conditions. After a test duration of 2 to 3 weeks, the test is evaluated in accordance with a scale of nine ratings (1=total damage, 9=no action). Ratings of from 1 to 4 (especially from 1 to 3) indicate good to very good herbicidal action. Test plants. Panicum (Pani), Euphorbia (Euph), Abutilon (Abut), Amaranthus (Amara), Stellaria (Stell), Veronica (Vero).

Panicum (Pani) [2] = experiment: Post-emergence herbicidal action (Example B2); parameters: key: 1=total damage; 9=no action; Ratings of from 1 to 4 (especially from 1 to 3) indicate good to very good herbicidal action; conditions: 1000 g of active compound per ha; post-emergence spray at 2- to 3-leaf stage; evaluated after 2 to 3 weeks; scale 1=total damage, 9=no action
Protocol: as §1

Euphorbia (Euph) [3] = experiment: Post-emergence herbicidal action (Example B2); parameters: key: 1=total damage; 9=no action; Ratings of from 1 to 4 (especially from 1 to 3) indicate good to very good herbicidal action; conditions: 1000 g of active compound per ha; post-emergence spray at 2- to 3-leaf stage; evaluated after 2 to 3 weeks; scale 1=total damage, 9=no action
Protocol: as §1

Abutilon (Abut) [4] = experiment: Post-emergence herbicidal action (Example B2); parameters: key: 1=total damage; 9=no action; Ratings of from 1 to 4 (especially from 1 to 3) indicate good to very good herbicidal action; conditions: 1000 g of active compound per ha; post-emergence spray at 2- to 3-leaf stage; evaluated after 2 to 3 weeks; scale 1=total damage, 9=no action
Protocol: as §1

Amaranthus (Amara) = experiment: Post-emergence herbicidal action (Example B2); parameters: key: 1=total damage; 9=no action; Ratings of from 1 to 4 (especially from 1 to 3) indicate good to very good herbicidal action; conditions: 1000 g of active compound per ha; post-emergence spray at 2- to 3-leaf stage; evaluated after 2 to 3 weeks; scale 1=total damage, 9=no action
Protocol: as §1

Veronica (Vero) = experiment: Post-emergence herbicidal action (Example B2); parameters: key: 1-9 scale: 1 = total damage, 9 = no action; conditions: 1000 g of active compound per ha; post-emergence spray at 2- to 3-leaf stage; evaluated after 2 to 3 weeks; scale 1=total damage, 9=no action
Protocol: as §1

Stellaria (Stell) [5] = experiment: Pre-emergence herbicidal action (Example B1); parameters: key: 1=total damage; 9=no action; Ratings of from 1 to 4 (especially from 1 to 3) indicate good to very good herbicidal action; conditions: 1000 g of active compound per ha; sprayed immediately after sowing; evaluated after 4 weeks; scale of nine ratings (1=total damage, 9=no action)
Protocol: (§2) Monocotyledonous and dicotyledonous test plants are sown in standard soil in pots. Immediately after sowing, the test compounds, in the form of an aqueous suspension (prepared from a wettable powder (Example F3, b) according to WO 97/34485) or in the form of an emulsion (prepared from an emulsifiable concentrate (Example F1, c) according to WO 97/34485), are applied by spraying, in an optimum concentration (500 litres of water per ha). The test plants are then grown in a greenhouse under optimum conditions. After a test duration of 4 weeks, the test is evaluated in accordance with a scale of nine ratings (1=total damage, 9=no action). Ratings of from 1 to 4 (especially from 1 to 3) indicate good to very good herbicidal action. Test plants: Panicum (Pani), Digitaria (Digit), Euphorbia (Euph), Sida, Abutilon (Abut), Amaranthus (Amar), Chenopodium (Cheno), Stellaria (Stell).

Chenopodium (Cheno) = experiment: Pre-emergence herbicidal action (Example B1); parameters: key: 1=total damage; 9=no action; Ratings of from 1 to 4 (especially from 1 to 3) indicate good to very good herbicidal action; conditions: 1000 g of active compound per ha; sprayed immediately after sowing; evaluated after 4 weeks; scale of nine ratings (1=total damage, 9=no action)
Protocol: as §2

Panicum (Pani) [6] = experiment: Pre-emergence herbicidal action (Example B1); parameters: key: 1=total damage; 9=no action; Ratings of from 1 to 4 (especially from 1 to 3) indicate good to very good herbicidal action; conditions: 1000 g of active compound per ha; sprayed immediately after sowing; evaluated after 4 weeks; scale of nine ratings (1=total damage, 9=no action)
Protocol: as §2

Sida = experiment: Pre-emergence herbicidal action (Example B1); parameters: key: 1=total damage; 9=no action; Ratings of from 1 to 4 (especially from 1 to 3) indicate good to very good herbicidal action; conditions: 1000 g of active compound per ha; sprayed immediately after sowing; evaluated after 4 weeks; scale of nine ratings (1=total damage, 9=no action)
Protocol: as §2

Amaranthus (Amar) = experiment: Pre-emergence herbicidal action (Example B1); parameters: key: 1=total damage; 9=no action; Ratings of from 1 to 4 (especially from 1 to 3) indicate good to very good herbicidal action; conditions: 1000 g of active compound per ha; sprayed immediately after sowing; evaluated after 4 weeks; scale of nine ratings (1=total damage, 9=no action)
Protocol: as §2

Digitaria (Digit) = experiment: Pre-emergence herbicidal action (Example B1); parameters: key: 1=total damage; 9=no action; Ratings of from 1 to 4 (especially from 1 to 3) indicate good to very good herbicidal action; conditions: 1000 g of active compound per ha; sprayed immediately after sowing; evaluated after 4 weeks; scale of nine ratings (1=total damage, 9=no action)
Protocol: as §2

Euphorbia (Euph) [7] = experiment: Pre-emergence herbicidal action (Example B1); parameters: key: 1=total damage; 9=no action; Ratings of from 1 to 4 (especially from 1 to 3) indicate good to very good herbicidal action; conditions: 1000 g of active compound per ha; sprayed immediately after sowing; evaluated after 4 weeks; scale of nine ratings (1=total damage, 9=no action)
Protocol: as §2

Abutilon (Abut) [8] = experiment: Pre-emergence herbicidal action (Example B1); parameters: key: 1=total damage; 9=no action; Ratings of from 1 to 4 (especially from 1 to 3) indicate good to very good herbicidal action; conditions: 1000 g of active compound per ha; sprayed immediately after sowing; evaluated after 4 weeks; scale of nine ratings (1=total damage, 9=no action)
Protocol: as §2

| SMILES | Post-emergence herbicidal action rating, Stell (Stellaria (Stell) [1]) | Post-emergence herbicidal action rating, Pani (Panicum (Pani) [2]) | Post-emergence herbicidal action rating, Euph (Euphorbia (Euph) [3]) | Post-emergence herbicidal action rating, Abut (Abutilon (Abut) [4]) | Post-emergence herbicidal action rating, Amar (Amaranthus (Amara)) | Post-emergence herbicidal action rating, Vero (Veronica (Vero)) | Pre-emergence herbicidal action rating, Stell (Stellaria (Stell) [5]) | Pre-emergence herbicidal action rating, Cheno (Chenopodium (Cheno)) | Pre-emergence herbicidal action rating, Pani (Panicum (Pani) [6]) | Pre-emergence herbicidal action rating, Sida (Sida) | Pre-emergence herbicidal action rating, Amar (Amaranthus (Amar)) | Pre-emergence herbicidal action rating, Digit (Digitaria (Digit)) | Pre-emergence herbicidal action rating, Euph (Euphorbia (Euph) [7]) | Pre-emergence herbicidal action rating, Abut (Abutilon (Abut) [8]) |
| --- | --- | --- | --- | --- | --- | --- | --- | --- | --- | --- | --- | --- | --- | --- |
| N#CCc1cc(C#CCOc2ncc(Cl)cn2)c(F)cc1F [7.031] | 3 | 2 | 3 | 3 | 2 | 2 | – | – | – | – | – | – | – | – |
| COc1cncnc1OCC#Cc1cccc(CC#N)c1 [Compound 5.025, {3-[3-(5-methoxy-pyrimidin-4-yloxy)-prop-1-ynyl]-phenyl}-acetonitrile] | 1 | 2 | 1 | 1 | 4 | 4 | – | – | – | – | – | – | – | – |
| N#CCc1ccc(F)c(C#CCOc2ncc(Cl)cn2)c1 [7.028] | 1 | – | 1 | – | 1 | 2 | – | – | – | – | – | – | – | – |
| N#CCc1cc(C#CCOc2ncc(Cl)cn2)ccc1F [Compound 7.022] | 3 | 2 | 1 | – | 1 | 2 | 1 | 3 | 1 | 1 | 1 | 1 | 3 | 1 |
| N#CCc1cccc(C#CCOc2ncc(Cl)cn2)c1 [7.021] | 3 | 2 | 1 | 2 | 1 | 3 | – | – | – | – | – | – | – | – |
| N#CCc1cccc(C#CCOc2ncc(Br)cn2)c1 [Compound 7.006] | 4 | 5 | 1 | 3 | 2 | 5 | 1 | 1 | 2 | – | – | – | 1 | 2 |
| COc1nccnc1OCC#Cc1cccc(CC#N)c1 [Compound 1.048] | 2 | 4 | 1 | 3 | 1 | 2 | 1 | 1 | 4 | 1 | 1 | 2 | 1 | 1 |
| COc1nc(C)ncc1OCC#Cc1cccc(CC#N)c1 [4.033] | 2 | 2 | 2 | 3 | 3 | 4 | – | – | – | – | – | – | – | – |
| COc1nc(Cl)cnc1OCC#Cc1cccc(CC#N)c1 [Compound 1.041, {3-[3-(5-chloro-3-methoxy-pyrazin-2-yloxy)-prop-1-ynyl]-phenyl}-acetonitrile] | 2 | 2 | 1 | 2 | 2 | 2 | 1 | 1 | 1 | 1 | 1 | 1 | 1 | 1 |
| N#CCc1cccc(C#CCOc2ncc(F)cn2)c1 [7.008] | 2 | 2 | 2 | 2 | 2 | 2 | – | – | – | – | – | – | – | – |
| N#CCc1cc(C#CCOc2ncc(F)cn2)ccc1F [7.027] | 3 | 1 | 2 | 4 | 2 | 4 | – | – | – | – | – | – | – | – |
